Test results reported in patent US9980943B2, “Methods of treating muscular dystrophy” (BOARD OF REGENTS OF THE NEVADA SYSTEM OF HIGHER EDUCATION, …, priority 2013, dated 2018).
Read-outs that look alike come from different tables or passages of the source.

Test system: α7 integrin (LacZ reporter in α7LacZ+/− myoblasts)
Assay: qHTS of the LOPAC library and MLSMR (online screen, α7LacZ+/− myoblasts)
Conditions: for activation at 0.307 µM / activation at 1.53 µM / activation at 7.66 µM / activation at 38.3 µM / Emax / EC50: Mus musculus, Myoblast; for activation at 0.307 µM: read-out: Activity at 0.307 uM [%] **; for activation at 1.53 µM: read-out: Activity at 1.530 uM [%] **; for activation at 7.66 µM: read-out: Activity at 7.660 uM [%] **; for activation at 38.3 µM: read-out: Activity at 38.30uM [%] **; for EC50: read-out: Fit LogAC50 (converted); for Score: Table 8 Compound data
[1] = 48 h, read-out: Fit Infinite Activity [%]

Compound	activation at 0.307 µM (48 h) [%]	activation at 1.53 µM (48 h) [%]	activation at 7.66 µM (48 h) [%]	activation at 38.3 µM (48 h) [%]	Emax [1] [%]	EC50 [µM]	Emax (read-out: Max Response [%]) [%]	Score
COc1ccc(-c2csc3ncnc(N4CCN(c5ccccc5[N+](=O)[O-])CC4)c23)cc1 [Compound 94]	11.5	8.66	36.5	138	138	10	138	43
O=C(COc1cc2oc(=O)c3c(c2cc1Cl)CCCC3)NC[C@H]1CC[C@H](C(=O)O)CC1 [Compound 95]	-12.4	3.06	36.2	67.9	83.4	7.08	67.9	–
COCCn1c(=N)c(S(=O)(=O)c2ccc(Br)cc2)cc2c(=O)n3ccccc3nc21 [Compound 96]	-7.89	1.1	54.5	73.2	75	4.47	73.2	–
CN(Cc1c(C(=O)N/N=C/c2cccc(F)c2)nnn1-c1nonc1N)c1ccccc1 [Compound 97]	1.91	1.37	59.1	79.3	79.8	5.62	79.3	–
COc1ccc(N(CC(=O)NCCC(C)C)C(=O)c2snc(C(=O)NC3CCCCC3)c2N)c(OC)c1 [Compound 98]	-0.0399	0.105	28.9	125	126	10	125	–
CC1(C)CC(O)=C/C(=N\c2ccc(C(=O)O)c(O)c2)C1 [Compound 99]	0.744	1.73	44.4	114	121	10	114	–
COC(=O)c1ccccc1NC(=O)c1cc[n+]([O-])cc1 [Compound 100]	-24.5	-4.99	30.1	56.3	64	3.98	56.3	–
CN(C)C1(C/N=C/c2cc(Cl)cc([N+](=O)[O-])c2O)CCCCC1 [Compound 101]	-14.2	-11.6	43.3	104	116	8.91	104	43
CS(=O)(=O)Cc1cccc(C(=O)NN(c2ccccc2)c2ccccc2)c1 [Compound 102]	10.3	11.3	24.3	159	160	12.6	159	–
COc1ccccc1CNS(=O)(=O)c1ccc(Cl)s1 [Compound 103]	-22	-16.4	50.2	91.3	96.9	6.31	91.3	–
O=C(NCCc1ccccc1)C1CCC(=O)N1C1CCCC1 (stereo not drawn) [Compound 104]	-6.49	-11.7	27.3	127	128	10	127	–
NS(=O)(=O)c1ccc(NC(=O)c2cc(-c3ccccc3O)[nH]n2)cc1 [Compound 105]	15.4	17.9	44.2	112	113	10	112	–
COc1ccc(-c2c[nH]nc2-c2ccc(OC)cc2)cc1 [Compound 106]	-0.495	9.02	40.4	70.1	79.2	–	70.1	–
Fc1ccc(-c2ccnn2-c2ccccc2)cc1 [Compound 107]	-17.2	-3.24	46	73.3	76.4	4.47	73.3	–
